Assay results from US20080004236A1, “High Dose, Short Interval Use of Sulfated Polysaccharides for Treatment of Infections” (priority 2004, published 2008).

How the values were obtained:
[1] = Maximum tolerated dose in rats
[2] = maximally tolerated dose, continuous infusion up to 14 days, subjects with symptomatic HIV infection; cited from earlier work
[3] = Maximum tolerated dose in monkeys
[4] = Maximum tolerated dose in dogs

dextran sulfate [listing 1 of 3 here]
maximum tolerated dose (MTD) [1]: about 800 mg/kg/day

dextran sulfate [listing 2 of 3 here]
toxicity of continuous intravenous infusion [2]: toxic

dextran sulfate [listing 3 of 3 here]
maximum tolerated dose (MTD) [3]: about 300 mg/kg/day | maximum tolerated dose (MTD) [4]: about 500 mg/kg/day
